Article PMC11184559, “Identification and Validation of Compounds Targeting Leishmania major Leucyl-Aminopeptidase M17” (ACS Infectious Diseases, 2024)
“And” between values parts separate entries of the source, which are not always exact repeats. Equal values may be shown once.

Assays:
rLmLAP = rLmLAP (Leishmania major, UniProt Q7KF27); assay: RapidFire-MS aminopeptidase activity assay: inhibition of rLmLAP (LSTVIVR substrate); format: biochemical; settings: for IC50: RapidFire-MS, 5 nM enzyme, 10 μM LSTVIVR, 20 min preincubation, 0.195-100 μM, mean ± standard error (n = 3)
Sequence of rLmLAP (Q7KF27 entry or part of it): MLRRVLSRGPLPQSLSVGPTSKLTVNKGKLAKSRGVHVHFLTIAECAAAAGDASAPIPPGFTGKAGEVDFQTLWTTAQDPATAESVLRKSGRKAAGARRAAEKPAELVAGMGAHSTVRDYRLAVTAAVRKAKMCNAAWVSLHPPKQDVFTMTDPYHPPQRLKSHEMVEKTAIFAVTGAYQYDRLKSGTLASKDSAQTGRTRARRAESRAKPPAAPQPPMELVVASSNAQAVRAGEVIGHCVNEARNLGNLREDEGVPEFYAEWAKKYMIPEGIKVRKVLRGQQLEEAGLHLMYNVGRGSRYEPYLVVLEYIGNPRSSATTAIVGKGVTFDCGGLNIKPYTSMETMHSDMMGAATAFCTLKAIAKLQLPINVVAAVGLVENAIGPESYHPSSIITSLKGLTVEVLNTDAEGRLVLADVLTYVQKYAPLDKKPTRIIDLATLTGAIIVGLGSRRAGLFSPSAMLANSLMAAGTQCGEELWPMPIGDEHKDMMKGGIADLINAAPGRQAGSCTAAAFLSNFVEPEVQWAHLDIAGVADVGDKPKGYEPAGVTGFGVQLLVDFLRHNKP
Method: Assays were carried out as previously described,[24] with some differences indicated below. The reaction mix consisted of 0 nM (control) and 30 nM rLmLAP in 1× PBS, pH 7.0, 0.005% (v/v) NP-40, plus 7.5 μL of LSTVIVR substrate peptide in the same buffer. For product quantification, the peak areas of the LSTVIVR peptide were integrated with respect to the internal standard LSTVIVR* peptide. The C-terminal arginine was chosen because this amino acid is amenable to isotopic labeling.[45]
rLmLAP was assayed at 5 nM with 10 μM (1× appKM) of LSTVIVR substrate peptide. The enzyme was preincubated with bestatin or DMSO for 20 min. Bestatin was prepared at 10 concentrations in DMSO, covering the range from 0.39 to 100 μM. […] The remaining experimental conditions were maintained, as described above.
A high-throughput screen was conducted against rLmLAP using 3,383 compounds with known protease inhibitor motifs. The compounds were dispensed onto plates using an ECHO 550 acoustic dispenser (Labcyte, Sunnyvale, CA). The enzyme was assayed at 5 nM with 10 μM (1× appKM) LSTVIVR substrate for 60 min. Before adding the substrate, the enzyme was preincubated with 45 nL of the compounds or DMSO for 20 min. Compounds, dissolved in DMSO, were tested at 30 μM. […] No replicates were performed for each inhibitor in this experiment. The remaining experimental conditions were kept constant as described above. The ActivityBase program from IDBS provider (https://www.idbs.com) was used to process and analyze the data. Selection criteria for potential inhibitors in this screen required an inhibition percentage greater than the mean (calculated from the inhibition percentages of all the inhibitors) plus three standard deviations (SD). All compounds were purchased commercially and are >95% pure by HPLC.
To obtain IC50 data for screen-detected rLmLAP inhibitors at a single concentration, ten-point concentration–response curves were generated for selected inhibitors showing greater than mean ±3 SD inhibition. The curves were prepared in 384-well plates with a maximum concentration of 100 μM and 1:2 serial dilutions in DMSO (0.195–100 μM) using an ECHO 550 acoustic dispenser. All other experimental conditions were as described above for RapidFire-MS optimization. Three replicates of each concentration of inhibitor were evaluated. The IC50 value was calculated by nonlinear fitting of a four-parameter logistic function to the experimental data. Curve fitting and IC50 calculations were performed using IDBS ActivityBase XE version 9.2.0.106. Inhibitory activity was determined using the peak area ratio, calculated as the reaction product (STVIVR) divided by its internal standard (*LSTVIVR). The peak area ratio of the reaction without enzyme was defined as 100% inhibitory activity, and that of the complete reaction mixture was defined as 0% inhibitory activity. At least three replicates were generated for each hit compound.

[1] = test system: L. donovani intracellular amastigotes; assay: Leishmania donovani intracellular (intramacrophage) assay, single concentration; format: cell-based; settings: Leishmania donovani, Macrophage, 96 h, intracellular amastigotes in macrophages, Hoechst imaging, read-out: Inhibition of L. donovani proliferation (%)
Method: The effect of the compounds selected as inhibitors of rLmLAP on the proliferation of L. donovani amastigotes was evaluated at a concentration of 50 μM. Macrophage cultures (ECACC, catalog number: 88081201) were used as host cells. Parasites were incubated with 4.27× 10^7 macrophages, at a multiplicity of infection (MOI) of 5, at 37 °C with 5% CO2, overnight in DMEM medium supplemented with 4.5 g/L glucose and glutamine and 10% FBS, in a Millicell HY T-600 three-layer culture flask (Merck Millipore, Solna, Sweden). […] Macrophages were incubated for another 24 h in the above conditions with 133 μL of fresh DMEM medium prewarmed at 37 °C and supplemented with 10% FBS to obtain a high count of intracellular amastigotes.
Forty-two hours after macrophage infection, compounds (50 μM, 250 nL in DMSO) were dispensed using LabCyte ECHO into each well of 384-well dark flat bottom plates (Corning, New York, USA). The plates were incubated at 37 °C, 5% CO2, for 4 h (without compounds, with DMSO, to determine the initial level of infection) and for 96 h (with and without compounds).

| SMILES | IC50 (rLmLAP) | inhibition at 50 µM [1] [%] | inhibition at 30 µM (rLmLAP; single-point high-throughput screen at 30 μM, read-out: Inhibition of rLmLAP in the screening) [%] |
| --- | --- | --- | --- |
| CC(C)C[C@H](NC(=O)[C@@H](O)[C@H](N)Cc1ccccc1)C(=O)O [Bestatin, reference compound] | 6 µM and 6.1 µM | – | – |
| Cc1cc(C(=O)N(Cc2ccco2)Cc2cc3ccc(Cl)cc3nc2N2CCCC2)n(C)n1 [DDD00092594] | 36.3 ± 3.3 µM | 19.9 ± 1.3 | – |
| N#CC(=Cc1cn(Cc2ccc(C(=O)O)o2)c2ccccc12)c1ccc(F)cc1 [DDD00092624] | 35.2 ± 3.2 µM | 7 ± 1 | – |
| N#CC(=Cc1cn(Cc2ccc(C(=O)O)o2)c2ccccc12)c1nc2ccccc2[nH]1 [DDD00092640] | 20.2 ± 1.1 µM | 0 | – |
| CS(=O)(=O)Nc1cc2ccccc2cc1C(=O)O [DDD00095117] | 19 ± 1 µM | 0 | – |
| COc1ccc(S(=O)(=O)N2Cc3ccccc3CC2C(=O)O)cc1 (stereo not shown) [DDD00095849] | 60 ± 5 µM | 12.7 ± 1.5 | – |
| Cc1ccc(C(=O)O)cc1S(=O)(=O)Nc1cccc(C2SCCS2)c1 [DDD00096698] | 50 ± 4 µM | 0 | ~65 |
| O=C(O)c1ccc(-c2nccs2)s1 [DDD00097905] | 37.1 ± 3.3 µM | 0 | – |
